In the experiment the target is T1, ∞vβ3 (Homo sapiens, UniProt P05106+P06756).
T1 construct: performed on HUVEC cells overexpressing ∞vβ3; endogenous in cells; host or cells: HUVEC
Briefly: IC50 by competition with echistatin 125I on HUVEC cells. To be noted: competition with echistatin-125I-SIB, read-out: IC50 (nM of targeting ligand). The experiment is classed as binding.

Structures are written as SMILES.

Regarding `CCCCCCCCCCCCCCCCCC(=O)OCC(COP(=O)(O)OCCNC(=O)OCCOCCOCCOCCOCCOCCOCCOCCOCCOCCOCCOCCOCCOCCOCCOCCOCCOCCOCCOCCOCCOCCOCCOCCOCCOCCOCCOCCOCCOCCOCCOCCOCCOCCOCCOCCOCCOCCOCCOCCOCCOCCOCCOCCOCCNc1c(NCCNC(=O)CCCOc2cc(C)c(S(=O)(=O)CNC(NC(=O)CCCCc3ccc4c(n3)NCCC4)C(=O)O)c(C)c2)c(=O)c1=O)OC(=O)CCCCCCCCCCCCCCCCC` (stereo not shown) [Example 6], the IC50 – broadly, the concentration at which inhibition is half-maximal – was found to be 0.4 nM.

The values are drawn from patent US9770520B2, “Chelate nanoemulsion for MRI” (GUERBET, priority 2011, dated 2017).
